Source: publication PMC5478822, “In Vitro Anticancer Effect of Gedunin on Human Teratocarcinomal (NTERA-2) Cancer Stem-Like Cells” (BioMed Research International, 2017)
≈ marks a conversion by molar mass, not a printed value. Where two headings read alike, the source gives them in different places.

How the values were obtained:
NTERA-2 cells [1] = experiment: DNA fragmentation analysis; assay type: cell-based, human; details: 48 and 72 h, gedunin 5, 10 and 15 μg/mL
Procedure: DNA fragmentation analysis was carried out according to previously described methods. NTERA-2 cells (2.5 × 10^4 cells/mL) were grown in cell culture flasks and incubated for 24 h. After incubation, flasks were treated with gedunin dissolved in 0.1% DMSO (5, 10, and 15 μg/mL) and further incubated for 48 and 72 h. Negative control for the experiment was 0.1% DMSO in DMEM medium. At the end of the incubation period, cells were trypsinized and cell pellets were obtained. Cell pellets were then incubated for 60 min at 50°C in a 100 μL of lysis buffer (100 mM Tris–HCl, pH 8, 100 mM NaCl, and 10 mM EDTA). Proteinase K (10 μL, 20 mg/mL) was then added to cell lysates and incubated for 30 min at 50°C. After adding 3 μL of 10 mg/mL RNase, the mixture was incubated for 2 h at 50°C. DNA was extracted in phenol chloroform-isoamyl alcohol and 1 μg of isolated DNA from each sample was subjected to 2.0% of agarose gel electrophoresis and visualized under UV using a gel-doc system (Quantum-ST4 1100/20 M).

Bax = experiment: RT-qPCR gene expression, Bax; assay type: cell-based, human; details: NTERA-2 cells, both doses tested, 24 h
Procedure: (§1) NTERA-2 (2.5 × 10^5 cells/mL) cells were cultured in cell culture flasks and treated with gedunin dissolved in 0.1% DMSO (5 and 10 μg/mL) for 24 h. Negative control for the experiment was 0.1% DMSO in DMEM medium. Following incubation, total RNA was extracted with TRIzol® reagent according to the manufacturer's instructions. For reverse transcription, extracted RNA (2 μg) was mixed with 50 ng of random primers and the total volume was made up to 13.5 μL with ultrapure water. Resulting mixture was incubated at 70°C for 5 min and, after incubation, it was kept on ice for 2 min. Complementary DNA (cDNA) was then synthesized by adding 2 μL from the transcription mixture, 5 μL of 5x MMLV-buffer, 5 μL of 10 mM deoxynucleotide mixture, 25 units of RNasin, and 200 units of MMLV-reverse transcriptase in a reaction mixture of 25 μL adjusted by adding ultrapure water and incubated at 37°C for 60 min. Real-time PCR was carried out in Stratagene Mx3000P using a master mix containing SYBR green (MESA Green qPCR Master Mix Plus for SYBR Assay). Primers used for real-time PCR are given in Table 1 and glyceraldehyde-3-phosphate dehydrogenase (GAPDH) was used as the internal housekeeping gene. […] Results of real-time PCR were analysed using the formula 2^−ΔΔCt.

[2] = tested on: peripheral blood mononuclear cells; experiment: WST-1 cell viability assay; assay type: cell-based, human; details: for IC50: Homo sapiens, PBMC, PBMCs, WST-1 assay; for Cytotoxic effect on normal peripheral blood mononuclear cells: WST-1 cell viability assay
Procedure: Cytotoxic effects of gedunin and positive control (retinoic acid) on normal human cells were evaluated by using human peripheral blood mononuclear cells. Collected blood was diluted with Hank's Buffered Salt Solution (HBSS) and layered onto Histopaque 1077. Blood was then centrifuged at 1000 rpm for 10 min. After centrifugation, opaque interface which contains mononuclear cells was seperated and washed with phosphate buffered saline (PBS). Cells were then counted and cultured (2 × 10^5 cells/mL) in RPMI medium supplemented with 10% fetal bovine serum (FBS), 50 IU/mL penicillin, and 50 μg/mL streptomycin in 24-well plates. Cells were then treated with different concentrations of gedunin and retinoic acid dissolved in 0.1% DMSO (3.125, 6.25, 12.5, 25, and 50 μg/mL) and incubated for 24, 48, and 72 h. Negative control for the experiment was 0.1% DMSO in RPMI medium. WST-1 cell proliferation assay was then carried out according to manufacturer's instructions to determine the cytotoxic effects.

Cdc37 = experiment: RT-qPCR gene expression, Cdc37; assay type: cell-based, human; details: NTERA-2 cells, 5 and 10 μg/mL, 24 h
Procedure: as §1

survivin = experiment: RT-qPCR gene expression, survivin; assay type: cell-based, human; details: NTERA-2 cells, both doses tested, 24 h
Procedure: as §1

NTERA-2 cells [3] = experiment: Nitrobluetetrazolium reactive oxygen species (ROS) assay; assay type: cell-based, human; details: 24 h after incubation, 2.5, 5 and 10 μg/mL
Procedure: ROS measurement in gedunin treated NTERA-2 cells was carried out using previously described methods. Cells (2 × 10^3) were cultured in 96-well cell culture plates and incubated for 24 h. After incubation cells were treated with gedunin (2.5, 5, and 10 μg/mL) and incubated for further 24 h. Cells were then incubated with nitrobluetetrazolium (1 mg/mL) for 1 h at 37°C. After the incubation 100 μL of DMSO was added to solubilize blue formazan, plates were shaken for 10 min at room temperature, and the absorbance was read at 620 nm.

HSP90 = experiment: RT-qPCR gene expression, HSP90; assay type: cell-based, human; details: NTERA-2 cells, 5 and 10 μg/mL, 24 h
Procedure: as §1

HSF1 = experiment: RT-qPCR gene expression, HSF1; assay type: cell-based, human; details: NTERA-2 cells, 24 h incubation
Procedure: as §1

ErbB2 = experiment: RT-qPCR gene expression, ErbB2; assay type: cell-based, human; details: NTERA-2 cells, 24 h incubation
Procedure: as §1

NTERA-2 cells [4] = experiment: TUNEL assay; assay type: cell-based, human; details: NTERA-2 cells, 2.5, 5 and 10 μg/mL, 24 h
Procedure: Terminal deoxynucleotidyl transferase-mediated dUTP-biotin nick-end labeling (TUNEL) staining was carried out to confirm in situ chromatin fragmentation. Cells cultured on coverslips (2.5 × 10^4 cells/mL) were treated with different concentrations of gedunin dissolved in 0.1% DMSO (2.5, 5, and 10 μg/mL) and incubated for 24 h. Negative control for the experiment was 0.1% DMSO in DMEM medium. TUNEL staining was carried out according to manufacturer's instructions. Briefly, cells were fixed with 4% formaldehyde and permeabilized with 0.2% Triton X-100. Equilibration buffer (100 μL) and TdT reaction mix to label DNA were added and incubated for further 60 min in a humidified chamber. Then coverslips were immersed in 2x SSC buffer for 15 min followed by immersing in 0.3% H2O2 for 3 min. Finally, labeled fragments were incubated with streptavidin horseradish peroxidase and visualized after diaminobenzidine (DAB) color development where dark brown spots confirmed apoptosis.

NTERA-2 cells [5] = experiment: Sulforhodamine B (SRB) antiproliferative assay; assay type: cell-based; details: Homo sapiens
Procedure: The NTERA-2 cells were cultured using Dulbecco's Modified Eagle's Medium (DMEM), supplemented with 10% fetal bovine serum (FBS), 50 IU/mL penicillin, and 50 μg/mL streptomycin. Cells were incubated at 37°C with 5% CO2 and 95% humidity.
Prior to the SRB assay, NTERA-2 cells were grown in a 75 cm[…] flasks. Upon confluency, cells were trypsinized and seeded into 96-well plates (5 × 10^3 cells/well). After 24 h incubation, cells were treated with various concentrations (3.125, 6.25, 12.5, 25, and 50 μg/mL) of gedunin and retinoic acid (positive control) dissolved in 0.1% dimethyl sulfoxide (DMSO) and incubated for 24, 48, and 72 h. Negative control for the experiment was 0.1% DMSO in DMEM medium. Then the cells were fixed with 20 μL of 50% (trichloroacetic acid) TCA and incubated for further 1 h at 4°C. After incubation, cells were washed five times with tap water and stained with 50 μL of 0.4% (w/v) SRB solution. After 20 min of incubation, SRB solution was poured off and unbound dye was removed by washing five times with 1% acetic acid. Bound SRB dye was then solubilized by adding 100 μL of Tris base solution. The plates were shaken for 1 h and absorbance was read at 540 nm OD.

AKT = experiment: RT-qPCR gene expression, AKT; assay type: cell-based, human; details: NTERA-2 cells, 24 h incubation
Procedure: as §1

p53 = experiment: RT-qPCR gene expression, p53; assay type: cell-based, human; details: NTERA-2 cells, 5 and 10 μg/mL, 24 h
Procedure: as §1

[6] = tested on: caspase 3/7 in NTERA-2 cells; experiment: Caspase 3/7 assay; assay type: cell-based, human; details: 24 h
Procedure: NTERA-2 cells (2.5 × 10^4 cells/mL) were cultured in 96-well cell culture plates and incubated for 24 h. After incubation, cells were treated with gedunin dissolved in 0.1% DMSO (2.5, 5, and 10 μg/mL) and incubated for further 24 h. Negative control for the experiment was 0.1% DMSO in DMEM medium. Caspase 3/7 reagent (100 μL) was then added to each well and incubated for 1 h in dark at 37°C. Luminescence of each well was measured by a plate reader.

NTERA-2 cells [7] = experiment: Acridine orange/ethidium bromide (AO/EB) staining; assay type: cell-based, human; details: NTERA-2 cells, 2.5, 5 and 10 μg/mL, 24 h
Procedure: NTERA-2 cells (2.5 × 10^4 cells/mL) were cultured on cell culture treated coverslips and incubated for 24 h. Subsequently, cells were exposed to different concentrations of gedunin dissolved in 0.1% DMSO (2.5, 5, and 10 μg/mL) and incubated for 24 h. Negative control for the experiment was 0.1% DMSO in DMEM medium. After incubation, cells were fixed using 4% formaldehyde in the dark for 10 min. Cells were then washed with PBS and stained with ethidium bromide (100 μg/mL) and acridine orange (100 μg/mL) solutions (1 : 1 v/v). Excess dye was then washed off with PBS and cell morphology was observed using a fluorescence microscope (BX51 TRF, Olympus Corporation, Tokyo, Japan).

[8] = 24 h incubation, read-out: IC50 in peripheral blood mononuclear cells, 24 h
[9] = 48 h incubation, read-out: IC50 in peripheral blood mononuclear cells, 48 h
[10] = 72 h incubation, read-out: IC50 in peripheral blood mononuclear cells, 72 h
[11] = NTERA2, 24 h incubation, read-out: IC50 in NTERA-2 cells, 24 h
[12] = NTERA2, 48 h incubation, read-out: IC50 in NTERA-2 cells, 48 h
[13] = NTERA2, 72 h incubation, read-out: IC50 in NTERA-2 cells, 72 h

## CC1=CC(=O)C(C(C)C)=CC1=O [thymoquinone]
NTERA-2 cells [1]
  DNA fragmentation (laddering pattern): smeared laddering pattern of DNA was observed

## CC(=O)O[C@@H]1C[C@H]2C(C)(C)C(=O)C=C[C@]2(C)[C@H]2CC[C@@]3(C)[C@H](c4ccoc4)OC(=O)[C@H]4O[C@]43[C@@]21C [Gedunin]
Bax
  Expression of Bax (real-time PCR): Upregulation of Bax
[2]; [8]
  IC50: > 100 µg/mL
[2]; [9]
  IC50: > 100 µg/mL
[2]; [10]
  IC50: > 100 µg/mL
[2]
  Cytotoxic effect on normal peripheral blood mononuclear cells: minimal effect on PBMCs
[2]; listed as gedunin
  Cytotoxic effect on normal peripheral blood mononuclear cells: not significant
Cdc37
  Expression of Cdc37 (real-time PCR): downregulation
survivin
  Expression of survivin (real-time PCR): downregulation
NTERA-2 cells [3]
  ROS production: increase in ROS production
HSP90
  Expression of HSP90 (real-time PCR): downregulation
HSF1
  Expression of HSF1 (real-time PCR): Significant downregulation
NTERA-2 cells [1]
  DNA fragmentation (laddering pattern): smeared laddering pattern of DNA was observed
ErbB2
  Expression of ErbB2 (real-time PCR): Significant downregulation
NTERA-2 cells [4]
  TUNEL-positive nuclei: increase in the number of TUNEL-positive nuclei
NTERA-2 cells [5]; [11]
  IC50: 14.6 µg/mL (≈ 30.2 µM)
NTERA-2 cells [5]; [12]
  IC50: 8.49 µg/mL (≈ 17.6 µM)
NTERA-2 cells [5]; [13]
  IC50: 6.55 µg/mL (≈ 13.6 µM)
AKT
  Expression of AKT (real-time PCR): Significant downregulation
p53
  Expression of p53 (real-time PCR): upregulation of p53
[6]; 2.5 μg/mL
  Fold change in caspase 3/7 activity: 1.08 fold
[6]; 5 μg/mL
  Fold change in caspase 3/7 activity: 1.2 fold
[6]; 10 μg/mL
  Fold change in caspase 3/7 activity: 1.41 fold
NTERA-2 cells [7]
  Morphological changes after AO/EB staining: morphological changes of apoptosis

## CC1=C(/C=C/C(C)=C/C=C/C(C)=C/C(=O)O)C(C)(C)CCC1 [Retinoic acid, retinoic acid, reference compound]
[2]; [8]
  IC50: > 100 µg/mL
[2]; [9]
  IC50: > 100 µg/mL
[2]; [10]
  IC50: > 100 µg/mL
NTERA-2 cells [1]
  DNA fragmentation (laddering pattern): smeared laddering pattern of DNA was observed
NTERA-2 cells [5]; [11]
  IC50: 14.4 µg/mL (≈ 47.8 µM)
NTERA-2 cells [5]; [12]
  IC50: 9.17 µg/mL (≈ 30.5 µM)
NTERA-2 cells [5]; [13]
  IC50: 6.87 µg/mL (≈ 22.9 µM)
